Assay results taken from paper PMC10931745 (International Journal of Molecular Sciences, 2024).

Tests used:
[1] = system: MCF-7; experiment: MTT cell viability assay; format: cell-based, human
Protocol: (§1) The cell lines used were purchased from American Type Culture Collection (ATCC, Manassas, VA, USA). Human breast cancer cells MCF-7 and MDA-MB-231, human mammary epithelial cell line MCF-10A, and mouse BALB/3T3 embryonic fibroblasts were cultured as already described by some of us. The murine macrophage cell line RAW 264.7 was maintained in Dulbecco’s Modified Eagle’s Medium (DMEM) high glucose (4.5 g/L) supplemented with 10% Fetal Bovine Serum (FBS), 1% L-glutamine, and 100 units/mL of penicillin/streptomycin. The cell cultures were maintained at the temperature of 37 °C in a humidified atmosphere containing 5% CO2.
(§2) The 3-(4,5-dimethylthiazol-2-yl)-2,5-diphenyl-2H-tetrazolium bromide (MTT) assay (Sigma Aldrich (St. Louis, MO, USA)) was carried out to study the in vitro anticancer activities of the complexes, following the previously reported protocol. The cells were incubated for 72 h with different concentrations of the tested compounds (0.1, 1, 10, 25, 50, 100, and 500 µM) and the IC50 values were calculated from the percent (%) of control using the software GraphPad Prism 9 (GraphPad Software, La Jolla, CA, USA).

[2] = system: MDA-MB-231; experiment: MTT cell viability assay; format: cell-based, human
Protocol: as §1, §2

[3] = system: human mammary epithelial cell line MCF-10A; experiment: MTT assay, toxicity towards normal cells; format: cell-based; conditions: 72 h
Protocol: as §1, §2

[4] = system: NO production in LPS-stimulated RAW 264.7 macrophages; experiment: Griess assay, NO production; format: cell-based, murine; conditions: 25 µM, LPS 1 µg/mL, 24 h
Protocol: The Griess assay was performed using RAW 264.7 murine macrophages to study the anti-inflammatory activity in terms of NO production. RAW 264.7 cells were plated in the 48 multi-wells and, after 24 h, treated with the tested molecules (25 µM) and the lipopolysaccharide (LPS, Sigma Aldrich, Milan, Italy) at a final concentration of 1 µg/mL. LPS is able to induce inflammation by stimulating NO production in immune system cells such as macrophages. After 24 h, the cell medium Griess reagent (Sigma Aldrich, Milan, Italy) was mixed in with a ratio of 1:1. The Griess reagent allowed for the quantification of NO released by macrophages in the treatment medium. The mixture was left for 30 min under agitation and, subsequently, the absorbance at 540 nm was measured using a multiplate reader. The obtained absorbance allowed us to calculate the NO production % compared to the absorbance obtained for the positive control, in which the cells were treated with LPS.

[5] = ABTS radical scavenging assay; format: biochemical
Protocol: The radical scavenging properties of the complexes on a 2,20-azino-bis(3-ethylbenzothiazoline-6-sulfonate) radical cation (ABTS^+) were evaluated as previously described.
All the complexes were used at different concentrations (5, 10, 25, 50, and 100 µg/mL) and the ABTS radical scavenging activity, measured at 730 nm using a microplate reader, was expressed as inhibition percentages (%IABTS) compared tothe control, according to the following expression:(3) IABTS (%)=ABSCTRL−ABSsample/ABSCTRL∗100 where ABSCTRL and ABSsample are the absorbance at 730 nm in the control and in the presence of samples, respectively.
IC50 values were calculated from the %IABTS using GraphPad Prism 9 software (GraphPad Inc., San Diego, CA, USA). Trolox was employed as a positive control, while caffeine and theophylline were reference compounds.

[6] = DPPH radical scavenging assay; format: biochemical
Protocol: The radical scavenging properties of the complexes on the 1,1-diphenyl-2-picrylhydrazil (DPPH) radical were evaluated as previously described.
All the complexes were used at different concentrations (10, 25, 50, 100, and 200 µg/mL) and the DPPH radical scavenging activity, measured at 517 nm using a microplate reader, was expressed as inhibition percentages (%IDPPH) compared to the initial concentration of DPPH (control) according to the following expression:(2) IDPPH (%)=ABSCTRL−ABSsample/ABSCTRL∗100 where ABSCTRL and ABSsample are the absorbance at 517 nm in the control and in the presence of samples, respectively.
The obtained IDPPH percentages allowed us to calculate the IC50 values using Graph-Pad Prism 9 software (GraphPad Inc., San Diego, CA, USA). Trolox was employed as a positive control, while caffeine and theophylline were reference compounds.

[7] = system: Escherichia coli (ATCC 25922); experiment: MIC/MBC broth dilution; format: cell-based; conditions: for MIC: Escherichia coli, ATCC25922
Protocol: (§3) The bacterial strains used for MIC and MBC value determinations expressed as µg/mL by the broth dilution method, according to CLSI guidelines, were the following:
(§4) -4 Gram-negative: Escherichia coli (ATCC® 25922^TM) and Klebsiella pneumoniae (ATCC® 13883^TM);
(§5) Increasing concentrations of the complexes (50, 70, 100, 150, and 200 µg/mL) were incubated with bacteria plated in 96-well microplates at 37 °C overnight as already reported, and then bacterial growth was checked at a wavelength of 600 nm using a Multiskan spectrophotometer (model Multiskan Ex Microplate; Thermo Scientific, Nyon, Switzerland). MIC or MBC values were obtained by comparing cell density with a positive control (bacterial cells grown in LB medium were added with only the vehicle, DMSO). The results were representative of three independent experiments performed in triplicate. Ampicillin, Gentamicin, and Cephalosporin (Sigma Aldrich A9393) were used as the control for strain sensitivity.

[8] = system: Klebsiella pneumoniae (ATCC 13883); experiment: MIC/MBC broth dilution; format: cell-based; conditions: for MIC: Klebsiella pneumoniae, ATCC13883, read-out: M.I.C. K. pneumoniae
Protocol: as §3, §4, §5

[9] = system: Enterococcus faecalis (ATCC 19433); experiment: MIC/MBC broth dilution; format: cell-based; conditions: for MIC: Enterococcus faecalis, ATCC19433, read-out: M.I.C. E. faecalis
Protocol: as §3
(§6) -3 Gram-positive: Enterococcus faecalis (ATCC® 19433^TM), Staphylococcus aureus (ATCC® 23235^TM), and Staphylococcus epidermidis (ATCC® 14990™).
as §5

[10] = system: Staphylococcus aureus (ATCC 23235); experiment: MIC/MBC broth dilution; format: cell-based; conditions: for MIC: Staphylococcus aureus, ATCC23235, read-out: M.I.C. S. aureus
Protocol: as §3, §6, §5

[11] = system: Staphylococcus epidermidis (ATCC 14990); experiment: MIC/MBC broth dilution; format: cell-based; conditions: for MIC: Staphylococcus epidermidis, ATCC14990, read-out: M.I.C. S. epidermidis
Protocol: as §3, §6, §5

[12] = system: Pseudomonas aeruginosa (ATCC 15442); experiment: MIC/MBC broth dilution; format: cell-based
Protocol: as §3
as §5, with “The results were representative of three independent experiments performed in triplicate.” left out

[13] = system: Salmonella typhimurium (ATCC 14028); experiment: MIC/MBC broth dilution; format: cell-based
Protocol: as §3
as §5, with “The results were representative of three independent experiments performed in triplicate.” left out

[14] = molecular target: T1, human topoisomerase I (hTopoI) (Homo sapiens, UniProt P11387); experiment: Human topoisomerase I relaxation assay; format: biochemical; conditions: supercoiled pHOT1 DNA
T1 construct: purchased TopoGEN, Port Orange, FL, USA
T1 sequence (P11387 1-765): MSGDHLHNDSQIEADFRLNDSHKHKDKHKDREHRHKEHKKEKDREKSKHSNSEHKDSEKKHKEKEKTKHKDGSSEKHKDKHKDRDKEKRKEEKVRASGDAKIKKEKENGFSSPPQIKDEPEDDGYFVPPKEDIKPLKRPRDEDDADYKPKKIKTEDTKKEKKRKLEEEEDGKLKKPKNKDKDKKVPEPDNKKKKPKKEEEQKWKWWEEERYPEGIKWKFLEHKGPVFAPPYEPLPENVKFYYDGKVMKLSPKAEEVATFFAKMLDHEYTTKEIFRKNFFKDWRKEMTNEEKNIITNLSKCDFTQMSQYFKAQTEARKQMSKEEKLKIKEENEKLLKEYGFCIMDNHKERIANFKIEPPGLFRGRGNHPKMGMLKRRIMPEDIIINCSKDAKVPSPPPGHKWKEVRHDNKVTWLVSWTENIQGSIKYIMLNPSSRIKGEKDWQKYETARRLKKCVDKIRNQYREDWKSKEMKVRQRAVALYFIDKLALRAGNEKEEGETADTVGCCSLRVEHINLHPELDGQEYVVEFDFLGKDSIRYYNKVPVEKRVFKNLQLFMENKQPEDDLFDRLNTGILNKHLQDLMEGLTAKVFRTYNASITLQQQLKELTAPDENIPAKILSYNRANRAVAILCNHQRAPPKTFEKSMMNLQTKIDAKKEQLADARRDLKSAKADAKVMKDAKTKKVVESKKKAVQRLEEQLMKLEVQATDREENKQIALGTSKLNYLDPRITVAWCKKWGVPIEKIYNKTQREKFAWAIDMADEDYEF
Protocol: The human topoisomerase I relaxation assay was performed as reported in [86]. Shortly, the recombinant human topo I (TopoGEN, Port Orange, FL, USA) was incubated with the super-coiled pHOT1, in the presence or not of the tested compounds, at the indicated concentrations. The reaction products were then allowed to separate through the agarose gel electrophoresis, and ethidium bromide-stained DNA was visualized under UV light.

| SMILES | IC50 [5] | IC50 [6] | IC50 ([1]; Homo sapiens, MCF7, 72 h) | IC50 ([2]; Homo sapiens, MDA-MB-231, 72 h) | M.I.C. E. coli [7] | M.I.C. K. pneumoniae [8] | M.I.C. E. faecalis [9] | M.I.C. S. aureus [10] | M.I.C. S. epidermidis [11] | IC50 ([3]; Homo sapiens, MCF-10A) | also measured |
| --- | --- | --- | --- | --- | --- | --- | --- | --- | --- | --- | --- |
| Cc1c(C)c2c(c(C)c1O)CCC(C)(C(=O)O)O2 (stereo not drawn) [Trolox, reference compound] | 54.5 ± 0.9 µM | 47 ± 1.2 µM | – | – | – | – | – | – | – | – | – |
| N.N.[Cl][Pt][Cl] [Cisplatin, reference compound] | – | – | – | – | – | – | – | – | – | – | IC50 ([1]; 72 h): 26.2 ± 1.1 µM; IC50 ([2]; 72 h): 32.2 ± 1 µM; IC50 [3]: 78.2 ± 1.2 µM; Inhibition of hTopo I supercoil relaxing activity ([14]; 50 µM): inhibited the hTopoI activity |
| Cn1c(=O)c2c(ncn2C)n(C)c1=O [Caffeine, 1,3,7-trimethylxanthine, reference compound] | > 500 µM | > 500 µM | > 500 µM | > 500 µM | >200 µg/mL | >200 µg/mL | >200 µg/mL | >200 µg/mL | >200 µg/mL | > 500 µM | Inhibition of hTopo I supercoil relaxing activity ([14]; 1 µM): failed; IC50 ABTS scavenging [5]: did not show any scavenging capacity; IC50 DPPH scavenging [6]: did not show any scavenging capacity; MIC [7]: > 200 µg/mL; MIC [8]: > 200 µg/mL; MIC [9]: > 200 µg/mL; MIC [10]: > 200 µg/mL; MIC [11]: > 200 µg/mL; M.I.C. P. aeruginosa [12]: >200 µg/mL; MIC ([12]; Pseudomonas aeruginosa, ATCC15442, read-out: M.I.C. P. aeruginosa): > 200 µg/mL |
| Cn1c(=O)c2[nH]cnc2n(C)c1=O [Theophylline, reference compound] | > 500 µM | > 500 µM | > 500 µM | > 500 µM | >200 µg/mL | >200 µg/mL | >200 µg/mL | >200 µg/mL | >200 µg/mL | > 500 µM | IC50 ABTS scavenging [5]: did not show any scavenging capacity; IC50 DPPH scavenging [6]: did not show any scavenging capacity; MIC [7]: > 200 µg/mL; MIC [8]: > 200 µg/mL; MIC [9]: > 200 µg/mL; MIC [10]: > 200 µg/mL; MIC [11]: > 200 µg/mL |

More lines, main results first:

| IC50 [5] | IC50 [6] | IC50 ([1]; Homo sapiens, MCF7, 72 h) | IC50 ([2]; Homo sapiens, MDA-MB-231, 72 h) | SMILES | M.I.C. E. coli [7] | M.I.C. K. pneumoniae [8] | M.I.C. E. faecalis [9] | M.I.C. S. aureus [10] | M.I.C. S. epidermidis [11] | IC50 ([3]; Homo sapiens, MCF-10A) | also measured |
| --- | --- | --- | --- | --- | --- | --- | --- | --- | --- | --- | --- |
| 155.5 ± 1 µM | > 500 µM | – | – | Cn1c(=O)c2c(n(C)[c]([Au-][I])[n+]2C2CCCCC2O)n(C)c1=O (stereo not drawn) [AuL2, 1,3,7-Trimethylxanthin-9-[cyclohexan-2-ol-8-ylidene]Au(I) Iodide] | 150 µg/mL | 150 µg/mL | 150 µg/mL | 150 µg/mL | 100 µg/mL | – | IC50 ([1]; 72 h): > 100 µM; IC50 ([2]; 72 h): > 100 µM; IC50 [3]: > 100 µM; Reduction in NO production [4]: ~12.64%; M.B.C. E. coli [7]: > 200 µg/mL; M.B.C. K. pneumoniae [8]: > 200 µg/mL; M.B.C. E. faecalis [9]: > 200 µg/mL; M.B.C. S. aureus [10]: > 200 µg/mL; M.B.C. S. epidermidis [11]: > 125 µg/mL; M.B.C. P. aeruginosa [12]: > 125 µg/mL; M.I.C. P. aeruginosa [12]: 100 µg/mL; M.B.C. S. typhimurium [13]: > 200 µg/mL; M.I.C. S. typhimurium [13]: 150 µg/mL |
| – | – | > 100 µM | > 100 µM | Cn1c(=O)c2c(n(C)c1=O)[n+](C)cn2CC(O)c1ccccc1 (stereo not drawn) [P-L1, 9-[(2-Hydroxy-2-phenyl)ethyl]-1,3,7-trimethylxanthinium Iodide] | – | – | – | – | – | > 100 µM | – |
| – | – | > 100 µM | > 100 µM | Cn1c(=O)c2c(n(C)c1=O)[n+](C)cn2C1CCCCC1O (stereo not drawn) [P-L2, 9-[Cyclohexan-2-ol]-1,3,7-trimethylxantinium Iodide] | – | – | – | – | – | > 100 µM | – |
| – | – | > 100 µM | > 100 µM | Cn1c(=O)c2c(n(C)c1=O)[n+](C)cn2CCO [P-L3] | – | – | – | – | – | > 100 µM | – |
